Legend:
[1] = Volatility of perfuming compounds (Tables 4 to 10), with top/middle/bottom note type; type: physicochemical
Method: In some aspects, the first perfume accord comprises perfuming compounds having a volatility ranging from 70,000 to 100 μg/l in air. In some aspects, perfuming compounds having a volatility ranging from 70,000 to 100 μg/l in air are referred to as “top notes”.
In some aspects, the second perfume accord comprises perfuming compounds having a volatility ranging from 99 to 50 μg/l in air. In some aspects, perfuming compounds having a volatility ranging from 99 to 50 μg/l in air are referred to as “middle notes”.
In some aspects, the third perfume accord comprises perfuming compounds having a volatility ranging from 49 to 0.1 μg/l in air. In some aspects, perfuming compounds having a volatility ranging from 49 to 0.1 μg/l in air are referred to as “bottom notes”.
Tables 4 to 10 describe top, middle and bottom note perfuming compounds for watery, green, fruity, citrus, sweet, gourmand and woody notes respectively.

[2] = Odor threshold and odor value of perfuming compounds (Tables 4 to 10)
[3] = Table 6, perfuming compounds having a fruity note
[4] = Table 6, perfuming compounds having a fruity note, note type by volatility
[5] = Table 7, citrus note, top, middle or bottom note
[6] = note type (Top/Middle/Bottom) by volatility, perfuming compounds having a green note
[7] = perfuming compounds having a green note
[8] = Table 8, perfuming compounds having a sweet note
[9] = Table 8, perfuming compounds having a sweet note, note type by volatility
[10] = Table 9, perfuming compounds having a gourmand note, note type by volatility
[11] = Table 10, perfuming compounds having a woody note, note type by volatility

Compound	Volatility [1, 3] [μg/l air]	Type [1, 4]	also measured
CC1CC(C)(c2ccccc2)OC(C)O1 (centres unmarked)	113.83	TOP (perfuming compounds having a volatility ranging from 70,000 to 100 μg/l in air are referred to as “top notes”)	Odor Threshold [2, 3]: 7.82E−03 μg/l air; Odor Value [2, 3]: 1.46E+04
CC(C)=CCCC(C)=CCO	–	–	Type [1, 5]: Middle
C=CC(=C)CCC=C(C)C	15094.56	TOP (perfuming compounds having a volatility ranging from 70,000 to 100 μg/l in air are referred to as “top notes”)	–
CCOC(=O)C1=C(C)C=CCC1(C)C	368.81	TOP (perfuming compounds having a volatility ranging from 70,000 to 100 μg/l in air are referred to as “top notes”)	–
CCOC(=O)C12CCCC1C1CCC2C1 (centres unmarked)	111.67	TOP (perfuming compounds having a volatility ranging from 70,000 to 100 μg/l in air are referred to as “top notes”)	Type [1, 6]: Top; Volatility (μg/l air) [1, 7]: 111.67 μg/l air; Odor Threshold [2, 3]: 6.87E−05 μg/l air; Odor Value [2, 3]: 1.63E+06; Odor Threshold (μg/l air) [2, 7]: 6.87E−05 μg/l air
CC1=CC[C@H](C(C)CC2CCCC2=O)CC1 (some centres unmarked)	2.05	Bottom	Volatility [1, 8]: 2.05 μg/l air; Type [1, 9]: Bottom; Volatility ([1]; Table 9, gourmand note): 2.05 μg/l air; Type [1, 10]: Bottom; Odor Threshold [2, 3]: 1.66E−04 μg/l air; Odor Value [2, 3]: 1.24E+04; Odor Threshold [2, 8]: 1.66E−04 μg/l air; Odor Value [2, 8]: 1.24E+04; Odor Threshold ([2]; Table 9, gourmand note): 1.66E−04 μg/l air
C/C=C/C(=O)C1=C(C)CCCC1(C)C	81.66	Middle	Type [1, 11]: Middle; Volatility ([1]; Table 10, woody note): 81.66 μg/l air; Odor Threshold [2, 3]: 2.18E−04 μg/l air; Odor Value [2, 3]: 3.75E+05; Odor Threshold ([2]; Table 10, woody note): 2.18E−04 μg/l air
C/C=C(\C)C(=O)OCC/C=C\CC	–	–	Type [1, 6]: Top; Volatility (μg/l air) [1, 7]: 168.78 μg/l air
CC(C)=CCC/C(C)=C/CO	–	–	Volatility (μg/l air) ([1]; Table 7, citrus note): 89.88 μg/l air; Type [1, 5]: Middle
CC(C)=CCC/C(C)=C\CO	–	–	Volatility (μg/l air) ([1]; Table 7, citrus note): 86.02 μg/l air; Type [1, 5]: Middle
CCCOC(=O)[C@H](C)OC(C)(C)CC	995.16	TOP (perfuming compounds having a volatility ranging from 70,000 to 100 μg/l in air are referred to as “top notes”)	–
C[C@H]1[C@@H]2C[C@H](C[C@@]13C=CC(=O)CC3)C2(C)C	4.14	Bottom	Type [1, 11]: Bottom; Volatility ([1]; Table 10, woody note): 4.14 μg/l air; Odor Threshold [2, 3]: 6.32E−04 μg/l air; Odor Value [2, 3]: 6.54E+03; Odor Threshold ([2]; Table 10, woody note): 6.32E−04 μg/l air
CC1(C)CCC[C@]2(C)[C@H]3CCO[C@]3(C)CC[C@@H]12	–	–	Type [1, 11]: Bottom
CCCCCC1(C)CCC(C)(C)C1=O (racemic)	265.42	TOP (perfuming compounds having a volatility ranging from 70,000 to 100 μg/l in air are referred to as “top notes”)	–
C=C1CCCC(C)(C)C1C(=O)OC (racemic)	1089.25	TOP (perfuming compounds having a volatility ranging from 70,000 to 100 μg/l in air are referred to as “top notes”)	–
CC/C=C\C[C@H]1C(=O)CC[C@@H]1CC(=O)OC (racemic)	1.59	Bottom	–
CC1CCC(=O)O1 (racemic) [(+−)-4-PENTANOLIDE]	2355.15	TOP (perfuming compounds having a volatility ranging from 70,000 to 100 μg/l in air are referred to as “top notes”)	Volatility (μg/l air) ([1]; Table 7, citrus note): 2355.15 μg/l air; Type [1, 5]: Top
CCCCCCCC1CCC(=O)O1 (racemic) [(+−)-5-heptyldihydro-2(3H)-furanone]	–	–	Odor Threshold [2, 3]: 3.16E−05 μg/l air; Odor Value [2, 3]: 1.16E+05; Odor Threshold [2, 8]: 3.16E−05 μg/l air; Odor Value [2, 8]: 1.16E+05; Odor Threshold ([2]; Table 9, gourmand note): 3.16E−05 μg/l air
CC1(C)C2CC[C@@]1(C)C(=O)C2 (single isomer, unassigned; (+))	555.04	TOP (perfuming compounds having a volatility ranging from 70,000 to 100 μg/l in air are referred to as “top notes”)	–
CC(=O)OC(C)(C)Cc1ccccc1 [1,1-DIMETHYL-2-PHENYLETHYL ACETATE]	198.02	TOP (perfuming compounds having a volatility ranging from 70,000 to 100 μg/l in air are referred to as “top notes”)	–
CCCc1ccc(OC)cc1 [1-METHOXY-4-PROPYLBENZENE]	629.29	TOP (perfuming compounds having a volatility ranging from 70,000 to 100 μg/l in air are referred to as “top notes”)	–
CCCCCC(C)=O [2-HEPTANONE]	26409.73	TOP (perfuming compounds having a volatility ranging from 70,000 to 100 μg/l in air are referred to as “top notes”)	–

Compound	Volatility [1, 3] [μg/l air]	Type [1, 4]	also measured
COc1ccc2ccccc2c1 [2-METHOXYNAPHTHALENE]	–	–	Odor Threshold [2, 8]: 1.02E−05 μg/l air; Odor Value [2, 8]: 5.00E+06; Odor Threshold ([2]; Table 9, gourmand note): 1.02E−05 μg/l air
CCCCCCC(C)=O [2-OCTANONE]	6639.71	TOP (perfuming compounds having a volatility ranging from 70,000 to 100 μg/l in air are referred to as “top notes”)	–
CC(=O)OCCC(C)CC(C)(C)C (centres unmarked) [3,5,5-TRIMETHYLHEXYL ACETATE]	1461.80	TOP (perfuming compounds having a volatility ranging from 70,000 to 100 μg/l in air are referred to as “top notes”)	–
CC(C)(C)Cc1cccnc1 [3-(2,2-DIMETHYLPROPYL)PYRIDINE]	516.21	TOP (perfuming compounds having a volatility ranging from 70,000 to 100 μg/l in air are referred to as “top notes”)	–
CC(C)CC(=O)O [3-METHYLBUTANOIC ACID]	–	–	Odor Threshold ([2]; Table 10, woody note): 2.23E−04 μg/l air
CCCCCC(=O)CC [3-OCTANONE]	6787.60	TOP (perfuming compounds having a volatility ranging from 70,000 to 100 μg/l in air are referred to as “top notes”)	–
CCOc1cc(C=O)ccc1O [3-ethoxy-4-hydroxybenzaldehyde]	–	–	Volatility [1, 8]: 0.11 μg/l air; Type [1, 9]: Bottom
Cc1ccc(OC(=O)C(C)C)cc1 [4-METHYLPHENYL ISOBUTYRATE]	167.81	TOP (perfuming compounds having a volatility ranging from 70,000 to 100 μg/l in air are referred to as “top notes”)	–
CCC(=O)CC(C)CC (centres unmarked) [5-METHYL-3-HEPTANONE]	14141.42	TOP (perfuming compounds having a volatility ranging from 70,000 to 100 μg/l in air are referred to as “top notes”)	–
CCCCCCC1CCCC(=O)O1 (centres unmarked) [6-hexyltetrahydro-2H-pyran-2-one]	4.64	Bottom	Volatility [1, 8]: 4.64 μg/l air; Type [1, 9]: Bottom; Volatility ([1]; Table 9, gourmand note): 4.64 μg/l air; Type [1, 10]: Bottom
CC/C=C\CCCCCO [(Z)-6-NONEN-1-OL]	–	–	Volatility (μg/l air) ([1]; Table 4, watery note): 6.91 μg/l air; Type ([1]; Table 4, watery note, top, middle or bottom note): bottom (perfuming compounds having a volatility ranging from 49 to 0.1 μg/l in air are referred to as “bottom notes”); Type [1, 6]: Bottom; Volatility (μg/l air) [1, 7]: 6.91 μg/l air
C=CCOC(=O)CCCCC [ALLYL HEXANOATE]	941.49	TOP (perfuming compounds having a volatility ranging from 70,000 to 100 μg/l in air are referred to as “top notes”)	–
O=Cc1ccccc1 [BENZALDEHYDE]	–	–	Volatility [1, 8]: 8207.00 μg/l air; Type [1, 9]: Top; Type [1, 6]: Top; Volatility (μg/l air) [1, 7]: 8207.00 μg/l air
CCOC(=O)c1ccccc1 [ETHYL BENZOATE]	1285.12	TOP (perfuming compounds having a volatility ranging from 70,000 to 100 μg/l in air are referred to as “top notes”)	–
CCOC(=O)C(C)C [ETHYL ISOBUTYRATE]	132964.09	TOP (perfuming compounds having a volatility ranging from 70,000 to 100 μg/l in air are referred to as “top notes”)	–
CCOC(=O)Cc1ccccc1 [ETHYL PHENYLACETATE]	269.77	TOP (perfuming compounds having a volatility ranging from 70,000 to 100 μg/l in air are referred to as “top notes”)	–
CC(=O)OCc1ccccc1 [benzyl acetate]	507.38	TOP (perfuming compounds having a volatility ranging from 70,000 to 100 μg/l in air are referred to as “top notes”)	–
CCOC(=O)/C(C)=C/C(C)C [ethyl (2E)-2,4-dimethyl-2-pentenoate]	1618.37	TOP (perfuming compounds having a volatility ranging from 70,000 to 100 μg/l in air are referred to as “top notes”)	–
CCCCCCC(=O)OCC [ethyl heptanoate]	3052.89	TOP (perfuming compounds having a volatility ranging from 70,000 to 100 μg/l in air are referred to as “top notes”)	–
COC(=O)C=C1CCCC1 [methyl cyclopentylideneacetate]	1091.46	TOP (perfuming compounds having a volatility ranging from 70,000 to 100 μg/l in air are referred to as “top notes”)	–
(+−)-(3E)-3-methyl-4-(2,6,6-trimethyl-2-cyclohexen-1-yl)-3-buten-2-one (A) + (+−)-(1E)-1-(2,6,6-trimethyl-2-cyclohexen-1-yl)-1-penten-3-one (B)	–	–	Type [1, 5]: Bottom

Reference: patent publication US20240301319A1, “PERFUMING COMPOSITIONS” (FIRMNICH SA, priority 2017, published 2024)
